Measured values: patent publication US20240132475A1, “SUBSTITUTED PYRAZOLYL COMPOUNDS AS MALT-1 INHIBITORS” (AURIGENE ONCOLOGY LIMITED, priority 2021, published 2024)

Target: T1, MALT-1 (Isoform 1) (Homo sapiens, UniProt Q9UDY8)
T1 construct: using recombinant MALT-1 (Isoform 1, aa-840) generated in house; made in house
T1 sequence (Q9UDY8 1-824): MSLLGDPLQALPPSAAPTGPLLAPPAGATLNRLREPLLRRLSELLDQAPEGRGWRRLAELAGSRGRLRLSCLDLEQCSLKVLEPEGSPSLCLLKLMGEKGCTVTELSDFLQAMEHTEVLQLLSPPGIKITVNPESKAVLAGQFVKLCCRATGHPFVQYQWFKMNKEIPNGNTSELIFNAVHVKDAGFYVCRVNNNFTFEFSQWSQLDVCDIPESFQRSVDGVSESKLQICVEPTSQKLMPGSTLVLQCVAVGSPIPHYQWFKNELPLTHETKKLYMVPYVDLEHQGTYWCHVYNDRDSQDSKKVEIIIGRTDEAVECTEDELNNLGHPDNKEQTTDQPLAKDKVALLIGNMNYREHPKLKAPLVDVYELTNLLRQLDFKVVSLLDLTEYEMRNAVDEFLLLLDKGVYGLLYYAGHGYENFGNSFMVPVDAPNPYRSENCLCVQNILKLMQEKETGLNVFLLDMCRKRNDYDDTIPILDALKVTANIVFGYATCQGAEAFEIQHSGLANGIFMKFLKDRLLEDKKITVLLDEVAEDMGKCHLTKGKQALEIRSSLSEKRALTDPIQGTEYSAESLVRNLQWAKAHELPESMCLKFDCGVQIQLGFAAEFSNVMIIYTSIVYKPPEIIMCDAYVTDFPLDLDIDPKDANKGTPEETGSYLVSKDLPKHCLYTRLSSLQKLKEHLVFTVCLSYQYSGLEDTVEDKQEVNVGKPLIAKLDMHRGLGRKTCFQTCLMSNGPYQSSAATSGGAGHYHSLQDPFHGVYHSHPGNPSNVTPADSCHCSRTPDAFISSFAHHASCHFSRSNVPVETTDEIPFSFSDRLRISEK
Assay: MALT-1 (Isoform 1) enzyme fluorescent biochemical assay
Details: for IC50: dose-response, sigmoidal curve fit, reported as groups A, B, C; for inhibition at 1 µM: test compound 1 μM, read-out: Percent Inhibition (1 μM)
Procedure: The potency of compounds to inhibit MALT-1 (Isoform 1) enzyme was tested in a Fluorescent assay using recombinant MALT-1 (Isoform 1, aa-840) generated in house. The assay buffer was 50 mM HEPES (pH 7.5), 100 mM NaCl, 10 mM DTT, 1 mM EDTA, 0.9 M sodium citrate, 0.01% CHAPS. 1.5 nM of MALT-1 enzyme was incubated with test compounds ([…]) (1% DMSO) in the presence of buffer for 30 minutes at 30° C. The protease reaction was initiated by adding […] of AC-LRSR-MAC (Peptide International, USA) substrate and incubated for 240 min. After 240 min incubation, fluorescence emission of the samples at 460 nm was measured at an excitation of 355 nm. The percent inhibition was calculated using the following formula: […]. IC50 values were determined by fitting the dose-response data to sigmoidal curve fitting equation using Graph pad prism software V8.
ND represents Not Determined.

| Compound | IC50 | inhibition at 1 µM (recombinant MALT-1 1.5 nM) | inhibition at 10 µM (test compound 10 μM (stated in the cell), recombinant MALT-1 1.5 nM, read-out: Percent Inhibition (10 μM)) |
| --- | --- | --- | --- |
| O=C(Nc1cc(C(F)(F)F)ccn1)c1cnn(Cc2cccc(F)c2Cl)c1C(F)(F)F [Compound 46, 1-(2-chloro-3-fluorobenzyl)-5-(trifluoromethyl)-N-(4-(trifluoromethyl)pyridin-2-yl)-1H-pyrazole-4-carboxamide] | > 1000 nM | 32% | – |
| O=C(Nc1ccnc(C(O)C(F)(F)F)c1)c1cnn(Cc2cccc(F)c2Cl)c1C(F)(F)F (stereo not drawn) [Compound 47, 1-(2-chloro-3-fluorobenzyl)-N-(2-(2,2,2-trifluoro-1-hydroxyethyl)pyridin-4-y1)-5-(trifluoromethyl)-1H-pyrazole-4-carboxamide] | – | – | 33% |
| CC(C)C(c1cccc(F)c1)n1ncc(C(=O)Nc2cnc(-n3nccn3)c(C#N)c2)c1C(F)(F)F (stereo not drawn) [Compound 48, N-(5-cyano-6-(2H-1,2,3-triazol-2-yl)pyridin-3-yl)-1-(1-(3-fluorophenyl)-2-methylpropyl)-5-(trifluoromethyl)-1H-pyrazole-4-carboxamide] | > 1000 nM | 23% | – |
| CC(c1cccc(Cl)c1)n1ncc(C(=O)Nc2cnc(-n3nccn3)c(Cl)c2)c1C(F)(F)F (stereo not drawn) [Compound 49, N-(5-chloro-6-(2H-1,2,3-triazol-2-yl)pyridin-3-yl)-1-(1-(3-chlorophenyl)ethyl)-5-(trifluoromethyl)-1H-pyrazole-4-carboxamide] | 251 to 1000 nM | 88% | – |
| CC(c1cccc(C#N)c1)n1ncc(C(=O)Nc2cnc(-n3nccn3)c(C#N)c2)c1C(F)(F)F (stereo not drawn) [Compound 50, N-(5-cyano-6-(2H-1,2,3-triazol-2-yl)pyridin-3-yl)-1-(1-(3-cyanophenyl)ethyl)-5-(trifluoromethyl)-1H-pyrazole-4-carboxamide] | < 250 nM | 65% | – |
| CC(c1cccc(Cl)c1)n1ncc(C(=O)Nc2cnc(-n3nccn3)c(C#N)c2)c1C(F)(F)F (stereo not drawn) [Compound 51, 1-(1-(3-chlorophenyl)ethyl)-N-(5-cyano-6-(2H-1,2,3-triazol-2-y1)pyridin-3-y1)-5-(trifluoromethyl)-1H-pyrazole-4-carboxamide] | < 250 nM | 100% | – |
| Cc1c(F)cccc1C(C)n1ncc(C(=O)Nc2cnc(-n3nccn3)c(C#N)c2)c1C(F)(F)F (stereo not drawn) [Compound 52, N-(5-cyano-6-(2H-1,2,3-triazol-2-yl)pyridin-3-yl)-1-(1-(3-fluoro-2-methylphenyl)ethyl)-5-(trifluoromethyl)-1H-pyrazole-4-carboxamide] | < 250 nM | 100% | – |
| O=C(Nc1cnnc(C(F)(F)F)c1)c1cnn(Cc2cccc(F)c2Cl)c1C(F)(F)F [Compound 53, 1-(2-chloro-3-fluorobenzyl)-5-(trifluoromethyl)-N-(6-(trifluoromethyl)pyridazin-4-yl)-1H-pyrazole-4-carboxamide] | 251 to 1000 nM | 60% | – |
| N#Cc1cc(NC(=O)c2cnn(Cc3cccc(F)c3Cl)c2C(F)(F)F)cnc1-c1ccoc1 [Compound 54, 1-(2-chloro-3-fluorobenzyl)-N-(5-cyano-6-(furan-3-yl)pyridin-3-y1)-5-(trifluoromethyl)-1H-pyrazole-4-carboxamide] | 251 to 1000 nM | 77% | – |
| N#Cc1cc(NC(=O)c2cnn(Cc3cccc(F)c3Cl)c2C(F)(F)F)cnc1-c1ccsc1 [Compound 55, 1-(2-chloro-3-fluorobenzyl)-N-(5-cyano-6-(thiophen-3-y1)pyridin-3-y1)-5-(trifluoromethyl)-1H-pyrazole-4-carboxamide] | 251 to 1000 nM | 63% | – |
| N#Cc1cc(NC(=O)c2cnn(Cc3cccc(F)c3C(F)F)c2C(F)(F)F)cnc1-n1nccn1 [Compound 56, N-(5-cyano-6-(2H-1,2,3-triazol-2-yl)pyridin-3-y1)-1-(2-(difluoromethyl)-3-fluorobenzyl)-5-(trifluoromethyl)-1H-pyrazole-4-carboxamide] | 251 to 1000 nM | 77% | – |
